Source: PMC11513854, “De novo GTP synthesis is a metabolic vulnerability for the interception of brain metastases” (Cell Reports Medicine, 2024)

Experiments:
[1] = Parallel artificial membrane permeability (PAMPA) assay; format: in vitro ADME; settings: 50 μM, pH 7.4, 16 h; −LogPe < 6 indicate high CNS permeability
Experimental: The permeability of the compounds was evaluated using the parallel artificial membrane permeability (PAMPA) assay, as previously described.[35] The PAMPA assembly was consisted of the acceptor plate (MultiScreen IP Filter Plate, Millipore Sigma, Canada) and the donor plate (96 well Collection Plate, Millipore Sigma, Canada). The artificial membrane solution was prepared as 15 mg/mL of polar brain lipid from porcine (Sigma Aldrich, Oakville, Canada) in a solution of 60% chloroform/40% dodecane. Seven μL of the mixture was pipetted into each acceptor plate well (top compartment). Thereafter, 300 μL of PBS (1 × PBS, pH 7.4, 5% DMSO) solution was added to each well of the acceptor plate and 300 μL of drug-containing donor solutions (50 μM compounds in 1 × PBS, pH 7.4, 5% DMSO) to each well of the donor plate (bottom compartment) in triplicate. […] The concentration of the compounds was determined by LC/MS/MS. The effective permeability (Pe), in units of centimeter per second, was calculated using the following equation: LogPe=Log{C×[−Ln(1−[drug]acceptor/[drug]equilibrium)]} Where: C = VD × VA/[(VD + VA) × t × A]; VD = volume of donor compartment (0.30 mL); VA = volume of acceptor compartment (0.30 mL); A = filter area (0.24 cm^2 for Multi-Screen Permeability Filter plate); and t = incubation time (in seconds).

[2] = tested on: patient-derived BMIC lines from lung-, breast-, and melanoma-BM; test: Dose-response curves of multiple BM lines; format: cell-based, human; settings: 72-h treatment; below plasma Cmax concentration of 10 μM
Text: PrestoBlue readout is normalized to vehicle-treated cells. Data are presented as mean ± SD from 4 technical replicates. (C) Assessment of cell viability of patient-derived BMICs treated with MPA or its vehicle. PrestoBlue readout is normalized to vehicle-treated cells, p < 0.0001. […] Sphere count normalized to vehicle-treated cells, p < 0.0001. (F and G) Percent wound closure of DMSO control vs. MPA-treated cells expressed as an average of replicates (n = 3) and images are taken at 10× magnification. Wound closure (represented by dotted white line) is measured using ImageJ on Incucyte-derived images, p values are indicated. Scale bars are 400 μm. See also Videos S1, S2, S3, and S4. Comparisons of cell viability, sphere formation, and wound closure were made via a two-tailed unpaired t test and data are presented as mean ± SD from 3 to 4 technical replicates. […]
Dose-response assays were conducted using the same protocol apart from drugs being plated using 2-fold serial dilutions (20 μM - 39 nM) as previously described.[66] The half maximal inhibitory concentration (IC50) is determined by plotting percent cell viability by the logarithmic concentration of drug. IC80 concentrations will be used for subsequent functional assays (cell proliferation, sphere formation), as determined by the following formula: ICF=100−F/F^1/H×IC50 where F = fraction of maximal response and H = hill slope.

patient-derived BMICs [3] = test: Cell proliferation assay over time, PrestoBlue; format: cell-based, human; settings: IC80, PrestoBlue normalized to vehicle
Experimental: Cell proliferation assays were conducted using the same protocol, except for drugs being plated at their IC80 for a four-day incubation period. All results were illustrated and analyzed for significance using GraphPad Prism 8 software.

patient-derived BMICs [4] = test: Migration (wound healing) assay; format: cell-based, human; settings: IC80
Experimental: Cells were plated at a density of 15,000 to 25,000 cells (depending upon the cell line) per 70 μL media supplemented with 10% FBS into two separate wells of a bi-silicon structure within a 48-well plate. The cells were allowed to adhere for 24 h at 37C within a humidified atmosphere of 5% CO2 to form a monolayer of cells. After 24 h the silicon inserts were detached from the 48-well plate, leaving behind two monolayers of cells that are separated by an empty ‘wound’ and enabling of cell migration into the exclusion zone. […] The plate was inserted into the Incucyte in vitro imaging system where the ‘wound’ was imaged periodically over time. The Incucyte scan type chosen was 300ms adherent cell-by-cell alongside phase and green imaging channels within a 10× objective. The images were uploaded to ImageJ where the wound area was calculated to determine the wound coverage percentage.

patient-derived BMICs [5] = test: Clonogenic secondary sphere formation assay after drug removal; format: cell-based, human; settings: IC80 treatment for 72 h, then removal from culture media
[6] = carboxylic acid functionality; no measurement described; cited from earlier work

SMILES	BBB penetrance by PAMPA [1]	anti-BMIC activity against multiple BMIC lines [2]	BMIC proliferation over time (patient-derived BMICs [3])	migration of patient-derived BMICs (patient-derived BMICs [4])	sphere-forming capability following drug removal (patient-derived BMICs [5])	pKa [6]
COc1c(C)c2c(c(O)c1C/C=C(\C)CCC(=O)OCCN1CCCC1)C(=O)OC2 [Compound 3]	BBB penetrant	–	–	–	–	–
COc1c(C)c2c(c(O)c1C/C=C(\C)CCC(=O)O)C(=O)OC2 [MPA, Mycophenolic acid]	–	relatively high anti-BMIC activity	inhibits BMIC proliferation over time	inhibits the migration	do not regain sphere-forming capability	~5
